Drawing on patent US11319315B2, “Cyclohexyl acid triazole azoles as LPA antagonists” (BRISTOL-MYERS SQUIBB COMPANY, priority 2017, dated 2022), this text covers IC50 for 37 compounds.

SMILES strings stand for the structures.

In one experiment the target is T1, human LPA1 (Homo sapiens, UniProt Q92633).
T1 construct: expressed in transfected cells; host or cells: Chinese hamster ovary (CHO) cells
T1 sequence (Q92633 whole entry): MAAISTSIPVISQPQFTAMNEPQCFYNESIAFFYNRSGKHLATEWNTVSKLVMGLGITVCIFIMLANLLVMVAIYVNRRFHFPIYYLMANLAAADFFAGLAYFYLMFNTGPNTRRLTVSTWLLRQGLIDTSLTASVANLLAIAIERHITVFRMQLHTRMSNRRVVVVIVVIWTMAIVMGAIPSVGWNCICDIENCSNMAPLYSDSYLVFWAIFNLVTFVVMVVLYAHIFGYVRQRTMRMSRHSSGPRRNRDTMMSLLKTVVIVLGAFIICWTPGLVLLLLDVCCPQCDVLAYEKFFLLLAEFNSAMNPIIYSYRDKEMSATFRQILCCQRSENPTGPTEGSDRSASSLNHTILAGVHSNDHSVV
As to the kind of experiment: LPA1 functional antagonist assay (LPA-induced calcium flux in CHO cells overexpressing human LPA1). It is filed as cell-based. The following applies: inhibition of calcium flux induced by 10 nM LPA, CHO cells overexpressing human LPA1; read-out: hLPA1 IC50. The method in brief:
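Calcium flux was triggered by 10 nM LPA after 20 min room-temperature compound pre-incubation (final 0.08 nM to 5 μM, 0.5% DMSO) in human LPA1-overexpressing CHO cells carrying calcium dye. Buffer: HBSS with Ca/Mg, 20 mM HEPES, 0.1% fatty-acid-free BSA; IC50s from 4-parameter logistic fits.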
Usually IC50 stands for the concentration needed to halve the response being measured. Take `Cc1cc(C)n(Cc2nnn(Cc3c(-c4ccc(O[C@H]5CCC[C@H](C(=O)O)C5)c(C)n4)nnn3C)n2)n1` [Example 301, (1S,3S)-3-({6-[5-({5-[(3,5-dimethyl-1H-pyrazol-1-yl)methyl]-2H-1,2,3,4-tetrazol-2-yl}methyl)-1-methyl-1H-1,2,3-triazol-4-yl]-2-methylpyridin-3-yl}oxy)cyclohexane-1-carboxylic acid]: the IC50 worked out at 0.963 µM.
The same measure, in the same setting: the figure for `Cc1nc(-c2nnn(C)c2Cc2nnc(C3CCCC3)o2)ccc1O[C@H]1CCC[C@H](C(=O)O)C1` [Example 75] is 0.289 µM; for `Cc1nc(-c2nnn(C)c2CNc2ncn(-c3cc(F)cc(F)c3)n2)ccc1O[C@H]1CCC[C@H](C(=O)O)C1` [Example 40] it is 0.046 µM.
Same read-out and setting: next, `Cc1nc(-c2nnn(C)c2Cn2nnnc2S(C)(=O)=O)ccc1O[C@H]1CCC[C@H](C(=O)O)C1` [Example 350, (1S,3S)-3-[(6-{5-[(5-methanesul-fonyl-1H-1,2,3,4-tetrazol-1-yl)methyl]-1-methyl-1H-1,2,3-triazol-4-yl}-2-methylpyridin-3-yl)oxy]cyclohexane-1-carboxylic acid]: 1.24 µM; `Cc1nc(-c2nnn(C)c2CNc2nnc(C(C)C)s2)ccc1O[C@H]1CCC[C@H](C(=O)O)C1` [Example 122]: 0.555 µM.
The same measure, in the same setting: the figure for `Cc1nc(-c2nnn(C)c2CNc2noc(C3CC(F)C3)n2)ccc1O[C@H]1CCC[C@H](C(=O)O)C1` (some centres unmarked) [Example 189] is 0.074 µM; for `Cc1nc(-c2nnn(C)c2CNc2noc(CCCCF)n2)ccc1O[C@H]1CCC[C@H](C(=O)O)C1` [Example 183] it is 0.032 µM.
Take `CCOCCc1nc(NCc2c(-c3ccc(O[C@H]4CCC[C@H](C(=O)O)C4)c(C)n3)nnn2C)no1` [Example 213, (1S,3S)-3-((6-(5-(((5-(2-ethoxy-ethyl)-1,2,4-oxadiazol-3-yl)amino)methyl)-1-methyl-1H-1,2,3-triazol-4-yl)-2-methylpyridin-3-yl)oxy)cyclohexane-1-carboxylic acid]: the IC50 was 0.098 µM.
The same measure, in the same setting: the figure for `Cc1nc(-c2nnn(C)c2Cn2nnc([C@H]3CCCO3)n2)ccc1O[C@H]1CCC[C@H](C(=O)O)C1` [Example 297, (1S,3S)-3-({2-methyl-6-[1-methyl-5-({5-[(2R)-oxolan-2-yl]-2H-1,2,3,4-tetrazol-2-yl}methyl)-1H-1,2,3-triazol-4-yl]pyridin-3-yl}oxy)cyclohexane-1-carboxylic acid] is 0.092 µM.
Still for that read-out and setting: the figure for `Cc1nc(-c2nnn(C)c2COc2nnnn2CC(C)C)ccc1O[C@H]1CCC[C@H](C(=O)O)C1` [Example 144] is 0.094 µM.
As for `Cn1nnc(-c2ccc(O[C@H]3CCC[C@H](C(=O)O)C3)c(C#N)n2)c1Cn1cc(CC2CC2)nn1` [Example 92], the IC50 was 0.11 µM.
On to `CCOCc1nc(NCc2c(-c3ccc(O[C@H]4CCC[C@H](C(=O)O)C4)c(C)n3)nnn2C)no1` [Example 147], for which the IC50 was 0.045 µM.
Still for that read-out and setting: next, `CC[C@@H](OC)c1nc(NCc2c(-c3ccc(O[C@H]4CCC[C@H](C(=O)O)C4)c(C)n3)nnn2C)no1` (single isomer, unassigned) [Example 215]: 0.154 µM; `Cc1nc(-c2nnn(C)c2CNc2noc(C3(F)CCC3)n2)ccc1O[C@H]1CCC[C@H](C(=O)O)C1` [Example 148]: 0.019 µM.
On the same count and under the same terms, the figure for `Cc1nc(-c2nnn(C)c2CNc2nnc(C3CCCCC3)o2)ccc1O[C@H]1CCC[C@H](C(=O)O)C1` [Example 57] is 0.204 µM; for `Cc1nc(-c2nnn(C)c2CNc2noc(CCOC(C)C)n2)ccc1O[C@H]1CCC[C@H](C(=O)O)C1` [Example 214, (1S,3S)-3-((6-(5-(((5-(2-isopro-poxyethyl)-1,2,4-oxadiazol-3-yl)amino)methyl)-1-methyl-1H-1,2,3-triazol-4-yl)-2-methylpyridin-3-yl)oxy)cyclohexane-1-carboxylic acid] it is 0.246 µM.
Same read-out and setting: the figure for `Cc1nc(-c2nnn(C)c2CNc2noc(CCC3(C)CC3)n2)ccc1O[C@H]1CCC[C@H](C(=O)O)C1` [Example 187] is 0.031 µM; for `Cc1nc(-c2nnn(C)c2CNc2nsc(C(C)C)n2)ccc1O[C@H]1CCC[C@H](C(=O)O)C1` [Example 120] it is 0.025 µM; for `Cc1nc(-c2nnn(C)c2COc2noc(C(C)C)n2)ccc1O[C@H]1CCC[C@H](C(=O)O)C1` [Example 130] it is 0.026 µM.
Take `Cc1nc(-c2nnn(C)c2Cn2nncc2COc2ccccc2)ccc1O[C@H]1CCC[C@H](C(=O)O)C1` [Example 84]: the IC50 was 0.172 µM.
With `Cc1nc(-c2nnn(C)c2CNc2noc(CCC(C)F)n2)ccc1O[C@H]1CCC[C@H](C(=O)O)C1` (some centres unmarked) [Example 201], the IC50 came to 0.032 µM.
Same read-out and setting: the figure for `Cc1ccc(Oc2nnn(Cc3c(-c4ccc(O[C@H]5CCC[C@H](C(=O)O)C5)c(C)n4)nnn3C)n2)cc1` [Example 326, (1S,3S)-3-((2-methyl-6-(1-methyl-5-((5-(p-tolyloxy)-2H-tetrazol-2-yl)methyl)-1H-1,2,3-triazol-4-yl)pyridin-3-yl)oxy)cyclohexane-1-carboxylic acid] is 0.023 µM.
As for `Cc1nc(-c2nnn(C)c2Cn2nnc(CC3CC3)n2)ccc1O[C@H]1CCC[C@H](C(=O)O)C1` [Example 105, (1 S,3 S)-3-((6-(5-((5-(cyclopropylmethyl)-2H-tetrazol-2-yl)methyl)-1-methyl-1H-1,2,3-triazol-4-yl)-2-methylpyridin-3-yl)oxy)cyclohexane-1-carboxylic acid], the IC50 is 0.029 µM.
On the same count and under the same terms, the figure for `Cc1nc(-c2nnn(C)c2Cc2nnn(CCC3CC3)n2)ccc1O[C@H]1CCC[C@H](C(=O)O)C1` [Example 400, (1S,3S)-3-{[6-(5-{[2-(2-cyclo-propylethyl)-2H-1,2,3,4-tetrazol-5-yl]methyl}-1-methyl-1H-1,2,3-triazol-4-yl)-2-methylpyridin-3-yl]oxy}cyclohexane-1-carboxylic acid] is 0.129 µM.
On the same count and under the same terms, the figure for `Cc1nc(-c2nnn(C)c2Cn2cc(C(C)C)nn2)ccc1O[C@H]1CCC[C@H](C(=O)O)C1` [Example 82] is 0.821 µM.
Same read-out and setting: next, `Cc1nc(-c2nnn(C)c2Cc2nc(CC3CC3)no2)ccc1O[C@H]1CCC[C@H](C(=O)O)C1` [Example 246, (1S,3S)-3-((6-(5-((3-(cyclopropyl-methyl)-1,2,4-oxadiazol-5-yl)methyl)-1-methyl-1H-1,2,3-triazol-4-yl)-2-methylpyridin-3-yl)oxy)cyclohexane-1-carboxylic acid]: 0.04 µM; `Cc1nc(-c2nnn(C)c2CNc2nc(C(C)C)cs2)ccc1O[C@H]1CCC[C@H](C(=O)O)C1` [Example 12]: 0.745 µM.
`Cc1nc(-c2nnn(C)c2CNc2cnn(C3CCCC3)n2)ccc1O[C@H]1CCC[C@H](C(=O)O)C1` [Example 28]: the concentration for half-maximal inhibition (IC50) is 0.039 µM.
For the compound `CCCc1nnn(Cc2c(-c3ccc(O[C@H]4CCC[C@H](C(=O)O)C4)c(C)n3)nnn2C)n1` [Example 113], the IC50 came to 0.03 µM.
For the compound `Cc1nc(-c2nnn(C)c2Cn2ncnc2C2CC2)ccc1O[C@H]1CCC[C@H](C(=O)O)C1` [Example 206], the IC50 came out at 1.09 µM.
Consider `Cc1nc(-c2nnn(C)c2Cn2nnc(OC3CC3)n2)ccc1O[C@H]1CCC[C@@H](C(=O)O)C1` [Example 341, (3S)-3-[(6-{5-[(5-cyclopropoxy-2H-1,2,3,4-tetrazol-2-yl)methyl]-1-methyl-1H-1,2,3-triazol-4-yl}-2-methylpyridin-3-yl)oxy]cyclo-hexane-1-carboxylic acid], for which the IC50 turned out to be 0.081 µM.
Take `CCC(C)Cc1nc(NCc2c(-c3ccc(O[C@H]4CCC[C@H](C(=O)O)C4)cn3)nnn2C)no1` (mixture of isomers) [Example 290, (1S,3S)-3-((6-(1-methyl-5-(((5-(2-methylbutyl)-1,2,4-oxadiazol-3-yl)amino)methyl)-1H-1,2,3-triazol-4-yl)pyridin-3-yl)oxy)cyclohexane-1-carboxylic acid, racemate]: the IC50 was 0.0373 µM.

The same experiment, now with this note: read-out: hLPA1 IC50.
Consider `COCCCCCOc1nnn(Cc2c(-c3ccc(O[C@H]4CCC[C@H](C(=O)O)C4)c(C)n3)nnn2C)n1` [Example 406, (1S,3S)-3-({6-[5-({5-[(5-methoxy-pentyl)oxy]-2H-1,2,3,4-tetrazol-2-yl}methyl)-1-methyl-1H-1,2,3-triazol-4-yl]-2-methylpyridin-3-yl}oxy)cyclohexane-1-carboxylic acid], for which the IC50 is 0.681 µM.
In the case of `Cc1nc(-c2nnn(C)c2Cn2nnc(OCC3CC4CCC3C4)n2)ccc1O[C@H]1CCC[C@H](C(=O)O)C1` (stereo partly drawn) [Example 405, (1S,3S)-3-{[6-(5-{[5-({bicyclo[2.2.1]heptan-2-yl}methoxy)-2H-1,2,3,4-tetrazol-2-yl]methyl}-1-methyl-1H-1,2,3-triazol-4-yl)-2-methylpyridin-3-yl]oxy}cyclohexane-1-carboxylic acid], the IC50 was determined as 0.047 µM.
The same measure, in the same setting: next, `Cc1nc(-c2nnn(C)c2CNc2nnn(CC3CC3)n2)ccc1O[C@H]1CCC[C@H](C(=O)O)C1` [Example 386, (1S,3S)-3-((6-(5-(((2-(cyclopropyl-methyl)-2H-tetrazol-5-yl)amino)methyl)-1-methyl-1H-1,2,3-triazol-4-yl)-2-methylpyridin-3-yl)oxy)cyclohexane-1-carboxylic acid]: 0.026 µM.
Regarding `Cc1nc(-c2nnn(C)c2Cc2nnn(CCC3CC3)n2)ccc1O[C@H]1CCC[C@H](C(=O)O)C1` [Example 400, (1S,3S)-3-{[6-(5-{[2-(2-cyclo-propylethyl)-2H-1,2,3,4-tetrazol-5-yl]methyl}-1-methyl-1H-1,2,3-triazol-4-yl)-2-methylpyridin-3-yl]oxy}cyclohexane-1-carboxylic acid], the IC50 was determined as 0.128 µM.
Same read-out and setting: next, `COCCOc1nnn(Cc2c(-c3ccc(O[C@H]4CCC[C@H](C(=O)O)C4)c(C)n3)nnn2C)n1` [Example 407, (1S,3S)-3-{[6-(5-{[5-(2-methoxy-ethoxy)-2H-1,2,3,4-tetrazol-2-yl]methyl}-1-methyl-1H-1,2,3-triazol-4-yl)-2-methylpyridin-3-yl]oxy}cyclohexane-1-carboxylic acid]: 0.142 µM; `Cc1nc(-c2nnn(C)c2Cn2nnc(N(CC3CC3)CC3CC3)n2)ccc1O[C@H]1CCC[C@H](C(=O)O)C1` [Example 358, (1S,3S)-3-((6-(5-((5-(bis(cyclo-propylmethyl)amino)-2H-tetrazol-2-yl)methyl)-1-methyl-1H-1,2,3-triazol-4-yl)-2-methylpyridin-3-yl)oxy)cyclohexane-1-carboxylic acid]: 0.949 µM.
